Assay results taken from patent publication US5906922A, “Delivery of nucleic acids” (Commonwealth Scientific and Industrial Research Organisation, priority 1994, dated 1999).
Read-outs that look alike come from different tables or passages of the source. Where a SMILES comes first, the peptide text is derived from it. The star is where a group is joined. NHC(CH2OLauroyl)3 = CCCCCCCCCCCC(=O)OCC(COC(=O)CCCCCCCCCCC)(COC(=O)CCCCCCCCCCC)N*

Legend:
CHO cells [1] = assay: β-gal microtitre plate transfection assay, CHO; assay type: cell-based, Chinese Hamster; details: Table 3, CHO
Text: For experiment "c", a plasmid pPGKlaczNLS encoding β-galactosidase under the control of the mouse PGK promoter (kind gift from G.Hannan) or pSVGAL which utilises the SV40 early promoter (Sleigh, M. J. and Lockett, T. J. (1985). EMBO J. 4:3831-3837),was transfected. This experiment and assay were modified from Feigner et al J. Biol Chem. 269(4) 2550-2561 1994. This protocol allows the simultaneous assessment of 72 different combinations and concentrations of DNA and test agent in a microtitre tray. […] Cytotoxicity was assessed using alamar blue, and a sample graph is shown for experiment a.
Each of these compounds was tested for transfection ability and cytotoxicity on standard cell lines using standard conditions as described above.
(§1) The ratio of [lipid]/[DNA] at which that maximum was achieved is shown in brackets for the two different cell types in the following order; (Cos 1) (CHO). Experiments shown were carried out in Cos 1 cells, as described above. Viability was measured with the dye alamar blue . # Denotes compounds tested in a separate experiment. * Viability in this experiment was determined with MTS. OD is a measure of relative viability of the cells exposed to the different agents, and as with alamar blue, a higher value indicates greater cell viability.

cells [2] = assay: β-gal reporter transfection, "y" linker non-standard amino acids; assay type: cell-based; details: K3 "y" TL3 compounds
Description: Peptide/fatty acyl conjugates were synthesized using the non-standard amino acids amino butyric (C3), amino caproic (C5) and amino caprylic (C7) acids as the linker groups, a tri-lysine nucleic acid binding domain and laurate for the three fatty acyl groups. In these new conjugates the DNA binding and tris/fatty acyl moieties were separated by an extra 3, 5 and 7 carbon bond lengths respectively when compared with the prototype molecule. These compounds were then tested in the standard manner described above to determine their relative capacity to transfect cells.
K3 "y" TL3 compounds, where y=C3, C5, C7, A, L, G were compared for transfection efficiency to each other and the commercial agent Lipofectamine using the standard β-gal reporter gene system described above.

Cos 1 cells [3] = assay type: cell-based, African Green Monkey
Procedure, shortened: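 Relative viability of Cos 1 cells exposed to lipid/DNA agents was read as MTS optical density; higher OD means greater viability. Some points came from separate experiments.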

cells [4] = assay: β-gal plate assay of unformulated mixtures of lipopeptides; assay type: cell-based; details: previously determined
Description: The optimal level of transfection achieved using the compound K3ATL3 had been previously determined as requiring ^- 5 μM K3ATL3. K3ATL3 was mixed with each of K3ATL1, K3ATL2, K3ATM3, K3ATP3 and K3ATC3 to give a total concentration of lipid of 5 μM in 100 μl at ratios of 0:5, 1:4, 2:3, 3:2, 4:1 and 5:0. K3ATM3 was similarly mixed with K3ATM1, K3ATM2 and K3ATP3. Each of the lipid mixtures was combined with a constant amount of pSVGAL DNA 0.5 μg/well and transfection allowed to proceed normally.
This was further tested by making a 4:1 molar mix of the two lipopeptides K3ATL3 and K3ATM3 and testing them in a standard plate assay which involved doubling dilutions of both the lipopeptide and DNA concentration. This was compared to expression achieved with using the pure compound K3ATL3 under the same conditions.

Hela cells [5] = assay: β-gal plate transfection assay, Hela; assay type: cell-based, Human; details: 48 hours
Description: (§5) Hela cells were seeded in place of Cosl or CHO cells in DME+10% FCS at a density of 2×10^4 /well and transfected with pPGKlaczNLS as described above. At 48 hours, toxicity was determined by alamar blue and the cells processed for the β-gal assay.

Cos 1 cells [6] = assay: β-gal microtitre plate transfection assay, Cos 1; assay type: cell-based, African Green Monkey
Procedure, shortened: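 Cos 1 cells were transfected with β-galactosidase plasmids (mouse PGK or SV40 early promoter) across varied lipid/DNA ratios in microtitre format. The lipid/DNA ratio giving maximal expression was recorded. Viability was measured with alamar blue or MTS, where higher OD means greater viability.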

in vitro = assay type: cell-based, Chinese Hamster; details: hamster, cho cells
Description: (§2) An 18-mer 5'-fluoresceinated phosphorothioate oligonucleotide was transfected into CHO cells. A comparison was made between the ability of K3C7ATL3, K3ATL3 and no-agent, to transfect the oligonucleotide into the cells. The oligonucleotide was serially diluted from 121.2 μM nucleotide, to 60.6 and 30.3 μM nucleotide. The test lipopeptides were serially diluted from 84 μM , to 42 and 21 μM. These dilutions were combined in a 3×3 matrix resulting in concentrations half that described. That is, the top dilution of oligonucleotide became 60.6 μM nucleotide (3.37 μM 18-mer oligonucleotide) and lipopeptide 42 μM. The mix was allowed to incubate for 10 min at room temperature and then overlayed on CHO cells (seeded at 1×10^4 /well the previous day). washed free of serum with DDME, in a total volume of 100 μl. Wells receiving mix with no test agent had the three different concentrations of oligonucleotide overlayed under the same conditions.
(§3) After 3 hours of incubation under standard conditions of 37° C. and 5% CO2, the mix was removed and replaced with 50 μl of DDME. The cells were viewed live under the confocal microscope. The level of fluorescence was so high that the pinhole aperture for the LASER on the BioRad MRC 500 confocal microscope, was shut down to minimum. All images were then collected on the same settings for a quantitative comparison.

Hela cells [7] = system: Hela cells
Description: as §5

CHO cells [8] = assay type: cell-based, Chinese Hamster
Description: (LEGEND--FIGS. 7, 8 and 9; none; no agent used with plasmid DNA, rb/blank; reagent blank, number following description of compound indicates no. μl of 2 mM stock (diluted with water). 7b: 100% cell survival was taken from dishes which were "mock transfected" with no DNA or transfection agent. 0% viability was assayed in the absence of cells. Viability was assessed using the dye alamar blue.)
Relative levels of cytotoxicity caused by the different agents were compared during the experiment using the dye "Alamar Blue" (Alamar, Sacramento Calif.).
as §1

Cos 1 cells [9] = assay type: cell-based, African Green Monkey; remark: listed apart in the source
Procedure, shortened: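 Cytotoxicity of transfection agents (lipid/DNA combinations, β-galactosidase plasmid under PGK or SV40 early promoter) assessed in parallel with transfection. Viability read with alamar blue or, in some runs, MTS OD; higher signal means greater relative viability.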

leg muscle = assay: In vivo transfection (pGFP-N1, intramuscular); parameters: species or system hairless mouse; details: 10 μg pGFP-N1, 24 hours
Description: The plasmid pGFP-N1 (Clontech) encoding the Green Fluorescent Protein, was diluted 10 μg (in 10 μl) into 20 μl 5% dextrose in water and then combined with 2.1 μl of 10 mM K3ATL3 (10% DMSO) in 27.9 μl of 5% dextrose in water. After 10 min incubation at room temperature the mixture was injected into the leg muscle of a hairless mouse. The mouse was sacrificed after 24 hours and the muscle snap frozen on dry ice. Frozen sections of the tissue were made and analysed under the confocal microscope for fluorescence.

CHO cells [10] = assay: Oligonucleotide transfection (18-mer fluoresceinated phosphorothioate), CHO; assay type: cell-based, Chinese Hamster; details: 3 hours
Description: as §2, §3
After confocal analysis, 100 μl of EMEM+10% FCS was added back to the wells and cells were incubated under standard conditions overnight. Cells were re-examined for fluorescence.

PC3 = assay: Transfection of PC3 cells; assay type: cell-based, human; details: PC3, FIG. 22a
Text: (§4) Increasing the length of the linker portion of peptide/fatty acyl conjugates dramatically improves their transfection properties both in overall levels of reporter gene expression and also in the proportion of cells transfected. It is particularly noticable that peak levels of transfection are achieved using these reagents at a relatively low level of toxicity. […] This improved capacity of conjugates with longer linkers to promote transfection appears to be independent of cell type.

Jurkat T cell line = assay: Transfection of Jurkat cells; assay type: cell-based, Human; details: FIG. 22b
Text: as §4

[11] = Electron microscopy of formulated and unformulated compounds; assay type: physicochemical; details: rotary shadowed
Description: Solutions of formulated and unformulated compounds were analysed for potential membrane-like structure. In separate experiments the following samples were analysed:
a: Negatively stained samples of formulated compounds K3ATP2:DOPE, DOPE and the unformulated compounds K3C7ATL3 and Lipofectamine.
b: Rotary shadowed samples of K3C7ATL3 and Lipofectamine mixed with two ratios of nucleotide (plasmid).
Stock samples of liposomes at 2 mM, were diluted 1 in 10 with filtered distilled water, and mixed 1:1 with filtered negative stain (Ammonium Molybdate 2%, pH 6.5) and spread onto carbon-formvar coated copper/rhodium 200 mesh electron microscope grids, and examined in a Jeol JEM 100CX electron microscope at 60 kV at magnifications of between 33 k and 100 k.
Ratios of 0.69, and 0.25, of liposome:1 mole DNA nucleotides were diluted in water and mixed for 10 min at room temperature, spread onto carbon-formvar coated grids and rotary metal-shadowed with platinum-palladium (60:40) evaporated at an angle of 7° and examined in the electron microscope at 60 kV at magnifications between 26 k and 66 k.

[12] = [nucleotide] 15.15 μM, [test agent] 10.5 μM
[13] = [nucleotide] 15.15 μM, [test agent] 21 μM
[14] = [nucleotide] 15.15 μM, [test agent] 42 μM
[15] = [nucleotide] 30.3 μM, [test agent] 10.5 μM, *less strongly fluorescing for K3ATL3
[16] = [nucleotide] 30.3 μM, [test agent] 21 μM
[17] = [nucleotide] 30.3 μM, [test agent] 42 μM
[18] = [nucleotide] 60.6 μM, [test agent] 10.5 μM, *less strongly fluorescing for K3ATL3
[19] = [nucleotide] 60.6 μM, [test agent] 21 μM
[20] = [nucleotide] 60.6 μM, [test agent] 42 μM

Structure (SMILES) | transfection efficiency compared to Lipofectamine (cells [2]) | cytotoxicity at 3 h, 42 µM (in vitro) [%] | % cells fluorescing (CHO cells [10]; [12]) [%] | % cells fluorescing (CHO cells [10]; [13]) [%] | % cells fluorescing (CHO cells [10]; [14]) [%] | % cells fluorescing (CHO cells [10]; [15]) [%] | % cells fluorescing (CHO cells [10]; [16]) [%] | % cells fluorescing (CHO cells [10]; [17]) [%] | % cells fluorescing (CHO cells [10]; [18]) [%] | % cells fluorescing (CHO cells [10]; [19]) [%] | % cells fluorescing (CHO cells [10]; [20]) [%] | other results
CCCCCCCCCCCC(=O)OCC(COC(=O)CCCCCCCCCCC)(COC(=O)CCCCCCCCCCC)NC(=O)[C@H](C)NC(=O)[C@H](CCCCN)NC(=O)[C@H](CCCCN)NC(=O)[C@@H](N)CCCCN [K3ATL3] (H-KKKA-{NHC(CH2OLauroyl)3}) | more efficient at transfection than Lipofectamine | > 90 | 100 | 100 | 100 | 100 | 100 | 100 | 100 | 100 | 100 | ratio [lipid]/[DNA] at which maximum was achieved (CHO cells [1]): .69; β-gal (CHO) (CHO cells [1]; highest reading of 72 conditions): 7.89 × 10^-4; MTS OD490-655 (Cos 1 cells [3]): 1.363; Viability (Cos 1) (Cos 1 cells [3]): 1.36; concentration required for optimal transfection (cells [4]): ~5 µM; transfection ability, chain length C10 to C16 (Hela cells [5]): peak transfection efficiency at C12; transfection, linkers A, L and G compared (Cos 1 cells [6]; "y" linker experiment c, Cos 1, trilysine trilaurate): superior in achieving transfection; ratio [lipid]/[DNA] at which maximum was achieved (Cos 1 cells [6]; Table 2, Cos 1): 1.39; units β-gal (Cos 1 cells [6]; Table 2, Cos 1, highest reading of 72 conditions): 4.95 × 10^-4 units; β-gal (Cos 1) (Cos 1 cells [6]; Table 3, Cos 1, # tested in a separate experiment): 4.95 × 10^-4; β-gal (Cos 1) (Cos 1 cells [6]; Table 3, Cos 1, highest reading of 72 conditions): 3.02 × 10^-4; cell viability (Hela cells [7]): peak level of cell viability; Viability (CHO) (CHO cells [8]): 0.027; Viability (Cos 1) (Cos 1 cells [9]): 0.095; GFP fluorescence in motor end-plates (leg muscle): very strong fluorescence was seen in the motor end-plates; GFP fluorescence in muscle cells (leg muscle): Punctate fluorescence was observed in the cytoplasm of muscle cells
CCCCCCCCCCCC(=O)OCC(COC(=O)CCCCCCCCCCC)(COC(=O)CCCCCCCCCCC)NC(=O)CCCCCCCNC(=O)[C@H](CCCCN)NC(=O)[C@H](CCCCN)NC(=O)[C@@H](N)CCCCN [K3C7TL3] | more efficient at transfection than Lipofectamine | > 90 | 100 | 100 | 100 | 100 | 100 | 100 | 100 | 100 | 100 | transfection efficiency compared to standard single amino acid linker (cells [2]): dramatically more efficient than compounds using the standard single amino acid linker; transfection compared to lipofectamine (PC3): more effective transfection reagent than lipofectamine; transfection compared to lipofectamine (Jurkat T cell line): more effective transfection reagent than lipofectamine; DNA incorporation ([11]; lipopeptide : nucleotide ratio 0.69 (optimal)): most of the DNA was incorporated into collections of liposomes; DNA free in solution ([11]; ratio 0.25:1 (suboptimal)): a large amount of DNA was free in the solution
